The test in a line: Effect of oral hypoestoxide on blood cholesterol and triglyceride levels in a beagle dog (standard colorimetric method on sera). The note with it: 30 mg/kg oral once daily for seven days; for Triglycerides / Cholesterol: dog serum; for Triglycerides: day −1 value 300; for Cholesterol: day −1 value 308. The format is in vivo. As for the experimental part: In one example, hypoestoxide was administered orally to a 2-year-old female beagle dog at a dose of 30 mg/kg, once daily for seven days. Blood cholesterol and triglyceride levels were determined in sera obtained at days 1, 3, 7 and 14, respectively. Assays were performed by a standard colorimetric method by a commercial laboratory (Antech Diagnostics, Irvine, Calif.).

For `C=C1C(=O)C[C@H]2C[C@@H]3O[C@@]3(C)CC[C@@H]3O[C@@]3(C)C[C@@H](OC(C)=O)[C@H]1C2(C)C` [hypoestoxide], the “blood cholesterol and triglyceride levels (effect in words)” value (beagle dog) is “significantly lowered”. Further, the Triglycerides is, setting by setting: (day 1, normal reference range 29-291) 296 mg/dL; (day 3) 70 mg/dL; (day 7) 33 mg/dL; (day 14) 51 mg/dL. For the same molecule, the Cholesterol (day 1, normal reference range 92-324) is 122 mg/dL; the Cholesterol (day 3) came out at 130 mg/dL; the Cholesterol (day 7) was 124 mg/dL; the Cholesterol (day 14) was determined as 134 mg/dL.

The values are drawn from patent US20040087553A1, “Hypoestoxides, derivatives and agonists thereof for use in the treatment and prophylaxis of hyperlipidemia” (Paraquest, Inc., priority 2002, published 2004).
